In ChEMBL document CHEMBL1269000, “Synthesis and biological evaluation of [D-lysine]8cyclosporin A analogs as potential anti-HCV agents” (Bioorg Med Chem Lett, 2010):

Assays:
[1] = test system: Hepatitis C virus; assay: Antiviral activity against HCV after 72 hrs by stable luciferase reporter gene assay; assay type: functional, organism-based, Hepacivirus hominis
[2] = target: Peptidyl-prolyl cis-trans isomerase B (Homo sapiens, UniProt P23284); assay: Binding affinity to cyclophilin B by ELISA
Peptidyl-prolyl cis-trans isomerase B, sequence (P23284 whole entry): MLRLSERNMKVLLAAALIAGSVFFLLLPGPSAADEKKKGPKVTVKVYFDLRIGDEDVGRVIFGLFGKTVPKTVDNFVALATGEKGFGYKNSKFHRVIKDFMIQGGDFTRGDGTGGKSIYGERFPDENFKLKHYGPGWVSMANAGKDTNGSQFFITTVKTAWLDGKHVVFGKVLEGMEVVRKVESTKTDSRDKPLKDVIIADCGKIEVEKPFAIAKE

[3] = target: Peptidyl-prolyl cis-trans isomerase A (Homo sapiens, UniProt P62937); assay: Binding affinity to cyclophilin A by ELISA
Peptidyl-prolyl cis-trans isomerase A, sequence (P62937 whole entry): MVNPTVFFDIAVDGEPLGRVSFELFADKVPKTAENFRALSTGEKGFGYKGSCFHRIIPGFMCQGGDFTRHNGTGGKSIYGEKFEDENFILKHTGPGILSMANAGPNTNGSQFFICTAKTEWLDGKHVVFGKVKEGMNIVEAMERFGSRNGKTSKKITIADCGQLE

[4] = Cytotoxicity against human HuH7 cells assessed as release of lactate dehydrogenase; assay type: cell-based, Huh-7
[5] = test system: Jurkat; assay: Immunosuppressive activity against human Jurkat cells assessed as inhibition of phytohemagglutinin-M/phorbol myristate acetate-induced IL2 production; assay type: cell-based

C/C=C/C[C@@H](C)[C@@H](O)[C@H]1C(=O)N[C@@H](CC)C(=O)N(C)CC(=O)N(C)[C@@H](CC(C)C)C(=O)N[C@@H](C(C)C)C(=O)N(C)[C@@H](CC(C)C)C(=O)N[C@@H](C)C(=O)N[C@H](CCCCN(CC)CC)C(=O)N(C)[C@@H](CC(C)C)C(=O)N(C)[C@@H](CC(C)C)C(=O)N(C)[C@@H](C(C)C)C(=O)N1C
EC50 [1]: 180 nM
EC90 [1]: 530 nM
IC50 [2]: 19.8 nM
IC50 [3]: 26.6 nM
IC50 ([4]; Homo sapiens, Huh-7): 2240 nM
IC90 ([4]; human, HuH7 cells): 7900 nM
EC50 [5]: 2170 nM
